Source: patent US9833497B2, “Human originated EGF domain proteins and use of the same” (CHENGDU SOURCEBIO LIMITED-LIABILITY COMPANY, priority 2013, dated 2017)

Columns and labels:
Type in all cases: cell-based
[1] = tested on: E. coli DH5α; test: Antibacterial activity: MIC and growth curve against E. coli DH5α in 96-well plate; settings: minimal inhibitory concentration against E. coli DH5α; 96-well plate, 5×10^5 CFU/mL, 37° C., judged after 8 h
Outline: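 Log-phase bacteria (OD600 ~0.5) resuspended in LB at 5×10^5 CFU/mL, exposed to recombinant protein at 50, 25, 12.5 μg/mL final in triplicate, 37 °C shaking at 175 rpm. OD600 read every 30 min; MIC is lowest concentration showing no growth.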

[2] = tested on: E. coli BL21; test: MIC against Gram-negative bacteria: E. coli BL21; settings: 5×10^5 CFU/mL
Outline: (§1)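 First, colonies from LB agar were grown in LB at 37° C, 185 rpm, to McFarland turbidity 0.5, then centrifuged and resuspended in fresh LB. Next, wells received 5×10^5 CFU/mL bacteria plus two-fold serially diluted EGF domain protein (triplicate). Finally, plates were shaken at 37° C and the no-growth concentration taken as MIC.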

[3] = tested on: Pseudomonas aeruginosa; test: MIC against Gram-negative bacteria: Pseudomonas aeruginosa; settings: 5×10^5 CFU/mL
Outline: as §1

[4] = tested on: Klebsiella pneumonia; test: MIC against Gram-negative bacteria: Klebsiella pneumonia; settings: 5×10^5 CFU/mL
Outline: as §1

[5] = tested on: Enterobacter cloacae; test: MIC against Gram-negative bacteria: Enterobacter cloacae; settings: 5×10^5 CFU/mL
Outline: as §1

[6] = tested on: Aeromonas hydrophila; test: MIC against Gram-negative bacteria: Aeromonas hydrophila; settings: 5×10^5 CFU/mL
Outline: as §1

[7] = tested on: Citrobacter diversus; test: MIC against Gram-negative bacteria: Citrobacter diversus; settings: 5×10^5 CFU/mL
Outline: as §1

[8] = tested on: Moraxella catarrhalis; test: MIC against Gram-negative bacteria: Moraxella catarrhalis; settings: 5×10^5 CFU/mL
Outline: as §1

[9] = tested on: Proteus mirabilis; test: MIC against Gram-negative bacteria: Proteus mirabilis; settings: 5×10^5 CFU/mL
Outline: as §1

[10] = tested on: Proteus vulgaris; test: MIC against Gram-negative bacteria: Proteus vulgaris; settings: 5×10^5 CFU/mL
Outline: as §1

[11] = tested on: Serratia marcescens; test: MIC against Gram-negative bacteria: Serratia marcescens; settings: 5×10^5 CFU/mL
Outline: as §1

[12] = E. coli BL21, 10 h cultivation at 37° C.
[13] = Pseudomonas aeruginosa, 10 h cultivation at 37° C.
[14] = Klebsiella pneumonia, 10 h cultivation at 37° C.
[15] = Enterobacter cloacae, 10 h cultivation at 37° C.
[16] = Aeromonas hydrophila, 10 h cultivation at 37° C.
[17] = Citrobacter diversus, 10 h cultivation at 37° C.
[18] = Moraxella catarrhalis, 10 h cultivation at 37° C.
[19] = Proteus mirabilis, 10 h cultivation at 37° C.
[20] = Proteus vulgaris, 10 h cultivation at 37° C.
[21] = Serratia marcescens, 10 h cultivation at 37° C.
[22] = E. coli BL21, 96-well plate, 37° C., 10 h
[23] = Pseudomonas aeruginosa, 96-well plate, 37° C., 10 h
[24] = Klebsiella pneumonia, 96-well plate, 37° C., 10 h
[25] = Enterobacter cloacae, 96-well plate, 37° C., 10 h
[26] = Aeromonas hydrophila, 96-well plate, 37° C., 10 h
[27] = Citrobacter diversus, 96-well plate, 37° C., 10 h
[28] = Moraxella catarrhalis, 96-well plate, 37° C., 10 h
[29] = Proteus mirabilis, 96-well plate, 37° C., 10 h
[30] = Proteus vulgaris, 96-well plate, 37° C., 10 h
[31] = Serratia marcescens, 96-well plate, 37° C., 10 h

“PRT1475 (DINECKDPSNINGGCSQICDNTPGSYHCSCKNGFVMLSNKKDCK; listed as Homo sapiens)” was tested, and the MIC [1] was 25 µg/mL, the “MIC against E. coli BL21” value [2, 12] was 12.5 µg/mL and the “MIC against P. aeruginosa” value [3, 13] was 12.5 µg/mL. For the same substance, the “MIC against K. pneumonia” value [4, 14] was 12.5 µg/mL, the “MIC against E. cloacae” value [5, 15] was 25 µg/mL and the “MIC against A. hydrophila” value [6, 16] was 12.5 µg/mL. For the same substance, the “MIC against C. diversus” value [7, 17] was 25 µg/mL, the “MIC against M. catarrhalis” value [8, 18] was 12.5 µg/mL and the “MIC against P. mirabilis” value [9, 19] was 25 µg/mL. The “MIC against P. vulgaris” value [10, 20] was 12.5 µg/mL and the “MIC against S. marcescens” value [11, 21] was 12.5 µg/mL.
“PRT153 (DCLACQGGSQRPCSGNGHCSGDGSRQGDGSCRCHMGYQGPLCT; listed as Homo sapiens)” was tested, and the MIC [1] was 12.5 µg/mL, the “MIC (μg/mL) E. coli BL21” value [2, 12] was 100 µg/mL and the “MIC (μg/mL) P. aeruginosa” value ([3]; P. aeruginosa, 10 h cultivation at 37° C.) was 50 µg/mL. The “MIC (μg/mL) K. pneumonia” value ([4]; K. pneumonia, 10 h cultivation at 37° C.) was 12.5 µg/mL, the “MIC (μg/mL) E. cloacae” value ([5]; E. cloacae, 10 h cultivation at 37° C.) was 25 µg/mL and the “MIC (μg/mL) A. hydrophila” value ([6]; A. hydrophila, 10 h cultivation at 37° C.) was 50 µg/mL. For the same substance, the “MIC (μg/mL) C. diversus” value ([7]; C. diversus, 10 h cultivation at 37° C.) was 25 µg/mL, the “MIC (μg/mL) M. catarrhalis” value ([8]; M. catarrhalis, 10 h cultivation at 37° C.) was 12.5 µg/mL and the “MIC (μg/mL) P. mirabilis” value ([9]; P. mirabilis, 10 h cultivation at 37° C.) was 50 µg/mL. The “MIC (μg/mL) P. vulgaris” value ([10]; P. vulgaris, 10 h cultivation at 37° C.) was 12.5 µg/mL and the “MIC (μg/mL) S. marcescens” value ([11]; S. marcescens, 10 h cultivation at 37° C.) was 50 µg/mL.
With “PRT558 (CTCDPRGALDQLCGAGGLCRCRPGYTGTACQECSPGFHGFPSCVP; listed as Homo sapiens)” the MIC [1] was 12.5 µg/mL, the “MIC against E. coli BL21” value ([2]; 96-well plate, 37° C., 10 h) was 25 µg/mL and the “MIC against P. aeruginosa” value ([3]; 96-well plate, 37° C., 10 h) was 12.5 µg/mL. For the same substance, the “MIC against K. pneumonia” value ([4]; 96-well plate, 37° C., 10 h) was 25 µg/mL, the “MIC against E. cloacae” value ([5]; 96-well plate, 37° C., 10 h) was 50 µg/mL and the “MIC against A. hydrophila” value ([6]; 96-well plate, 37° C., 10 h) was 25 µg/mL. The “MIC against C. diversus” value ([7]; 96-well plate, 37° C., 10 h) was 12.5 µg/mL, the “MIC against M. catarrhalis” value ([8]; 96-well plate, 37° C., 10 h) was 25 µg/mL and the “MIC against P. mirabilis” value ([9]; 96-well plate, 37° C., 10 h) was 50 µg/mL. The “MIC against P. vulgaris” value ([10]; 96-well plate, 37° C., 10 h) was 25 µg/mL and the “MIC against S. marcescens” value ([11]; 96-well plate, 37° C., 10 h) was 12.5 µg/mL.
With “PRT1302 (QTSPCDQYECQNGAQCIVVQQEPTCRCPPGFAGPRCE; listed as Homo sapiens)” the MIC [1] was 12.5 µg/mL, the “MIC against E. coli BL21” value [2, 22] was 50 µg/mL and the “MIC against P. aeruginosa” value [3, 23] was 12.5 µg/mL. The “MIC against K. pneumonia” value [4, 24] was 50 µg/mL, the “MIC against E. cloacae” value [5, 25] was 25 µg/mL and the “MIC against A. hydrophila” value [6, 26] was 12.5 µg/mL. The “MIC against C. diversus” value [7, 27] was 50 µg/mL, the “MIC against M. catarrhalis” value [8, 28] was 12.5 µg/mL and the “MIC against P. mirabilis” value [9, 29] was 25 µg/mL. For the same substance, the “MIC against P. vulgaris” value [10, 30] was 50 µg/mL and the “MIC against S. marcescens” value [11, 31] was 25 µg/mL.
For “PRT711 (GDNMCRVNNGGCSTLCLAIPGGRVCACADNQLLDENGTTCT; listed as Homo sapiens)”, the MIC [1] was 25 µg/mL, the “MIC E. coli BL21” value ([2]; 96-well plate, 37° C., 10 h) was 12.5 µg/mL and the “MIC P. aeruginosa” value ([3]; 96-well plate, 37° C., 10 h) was 50 µg/mL. The “MIC K. pneumonia” value ([4]; 96-well plate, 37° C., 10 h) was 12.5 µg/mL, the “MIC E. cloacae” value ([5]; 96-well plate, 37° C., 10 h) was 25 µg/mL and the “MIC A. hydrophila” value ([6]; 96-well plate, 37° C., 10 h) was 50 µg/mL. The “MIC C. diversus” value ([7]; 96-well plate, 37° C., 10 h) was 12.5 µg/mL, the “MIC M. catarrhalis” value ([8]; 96-well plate, 37° C., 10 h) was 50 µg/mL and the “MIC P. mirabilis” value ([9]; 96-well plate, 37° C., 10 h) was 12.5 µg/mL. The “MIC P. vulgaris” value ([10]; 96-well plate, 37° C., 10 h) was 25 µg/mL and the “MIC S. marcescens” value ([11]; 96-well plate, 37° C., 10 h) was 50 µg/mL.
“PRT106 (RSVCDLFPSYCHNGGQCYLVENIGAFCRCNTQDYIWHKGMRCE; listed as Homo sapiens)” was tested, and the MIC [1] was 12.5 µg/mL, the “MIC (μg/mL) E. coli BL21” value [2, 22] was 50 µg/mL and the “MIC (μg/mL) P. aeruginosa” value [3, 23] was 12.5 µg/mL. The “MIC (μg/mL) K. pneumonia” value [4, 24] was 50 µg/mL, the “MIC (μg/mL) E. cloacae” value [5, 25] was 25 µg/mL and the “MIC (μg/mL) A. hydrophila” value [6, 26] was 12.5 µg/mL. For the same substance, the “MIC (μg/mL) C. diversus” value [7, 27] was 25 µg/mL, the “MIC (μg/mL) M. catarrhalis” value [8, 28] was 12.5 µg/mL and the “MIC (μg/mL) P. mirabilis” value [9, 29] was 12.5 µg/mL. For the same substance, the “MIC (μg/mL) P. vulgaris” value [10, 30] was 12.5 µg/mL and the “MIC (μg/mL) S. marcescens” value [11, 31] was 12.5 µg/mL.
With “PRT1446 (FLSPCVDDCGPYGQCKLLRTHNYLYAACECKAGWRGWGCT; listed as Homo sapiens)” the MIC [1] was 12.5 µg/mL, the “MIC against E. coli BL21” value [2, 12] was 12.5 µg/mL and the “MIC against P. aeruginosa” value [3, 13] was 25 µg/mL. The “MIC against K. pneumonia” value [4, 14] was 25 µg/mL, the “MIC against E. cloacae” value [5, 15] was 12.5 µg/mL and the “MIC against A. hydrophila” value [6, 16] was 25 µg/mL. The “MIC against C. diversus” value [7, 17] was 12.5 µg/mL, the “MIC against M. catarrhalis” value [8, 18] was 12.5 µg/mL and the “MIC against P. mirabilis” value [9, 19] was 12.5 µg/mL. For the same substance, the “MIC against P. vulgaris” value [10, 20] was 25 µg/mL and the “MIC against S. marcescens” value [11, 21] was 12.5 µg/mL.
